# Reference: patent US12428401B2, “Salt of an aminopyridine derivative compound, a crystalline form thereof, and a process for preparing the same” (Yuhan Corporation, priority 2017, dated 2025)
# Structures can show the parent of a compound that is named as a salt. Where two headings read alike, the source gives them in different places.
# Tests used:
# [1] = Pharmacokinetic comparison test in normal rats; assay type: in vivo, rats (SD rats); conditions: male, SD, rat, plasma, 30 mg/kg, Normal rats, oral 30 mg/5 ml/kg in 0.5% methylcellulose
# From the text: (§1) Specifically, the maximum plasma concentration (Cmax) and the area under the plasma concentration curve (AUClast) in the normal rats and the rats treated with esomeprazole were compared to evaluate the absorption of the drugs in the actual animals.
# (§2) In order to compare the pharmacokinetic parameters, 8-week old male rats (SD rats) with a body weight of about 250 g were used as test animals.
# [2] = Pharmacokinetic comparison test in beagle dogs; assay type: in vivo; conditions: male, dog, plasma, 5 mg/kg, oral 5 mg/2 mL/kg in 0.5% methylcellulose
# From the text: A comparison of the pharmacokinetic parameters (i.e., the maximum plasma concentration and the area under the plasma concentration curve) calculated therefrom are shown in Table 8 and FIG. 14.
# [3] = Stability test under stress conditions (PXRD, DSC, appearance, HPLC); conditions: for Content / Purity: HPLC
# [4] = accelerated conditions; for Content / Purity: HPLC
# Protocol: The five compounds were tested for stability under stress conditions and accelerated conditions.
# [5] = Pharmacokinetic comparison test in rats treated with esomeprazole; assay type: in vivo, rats (SD rats); conditions: male, SD, rat, plasma, po, 30 mg/kg, Rats treated with esomeprazole (i.v. 5 mg/2 mL/kg for 3 days), oral 30 mg/5 ml/kg
# From the text: as §1, §2
# A comparison of the pharmacokinetic parameters (i.e., the maximum plasma concentration and the area under the plasma concentration curve) calculated therefrom are shown in Table 7 and FIGS. 12 and 13.
# [6] = read-out: Area under the plasma concentration curve (AUClast)
# [7] = read-out: Maximum plasma concentration (Cmax)
# [8] = stress conditions, start to 4 weeks
smiles,measurement,setting,value
"C=CC(=O)Nc1cc(Nc2nccc(-n3cc(CN(C)C)c(-c4ccccc4)n3)n2)c(OC)cc1N1CCOCC1 [Ex. 1, mesylate salt of N-(5-(4-(4-((dimethylamino)methyl)-3-phenyl-1H-pyrazol-1-yl)pyrimidine-2-ylamino)-4-methoxy-2-morpholinophenyl)acrylamide]",AUC(0-t),[1]; [6],8140 ng·h/mL
same,Cmax,[1]; [7],816 ng/mL
same,AUC(0-t),[2]; [6],812 ng·h/mL
same,Cmax,[2]; [7],135 ng/mL
same,Stability (overall conclusion of the stability test),"[3]; stress and accelerated conditions together, purity, water content, PXRD pattern, appearance",excellent in stability
same,Appearance (color),"[3]; stress conditions, 2 weeks",White
same,DSC onset,"[3]; stress conditions, 2 weeks",214 °C
same,Water content,"[3]; stress conditions, 2 weeks",2.71%
same,Appearance (color),"[3]; stress conditions, 4 weeks",White
same,DSC onset,"[3]; stress conditions, 4 weeks",214 °C
same,Water content,"[3]; stress conditions, 4 weeks",2.70%
same,Content,"[3]; stress conditions, 2 weeks",97.7%
same,Purity,"[3]; stress conditions, 2 weeks",99.3%
same,Content,"[3]; stress conditions, 4 weeks",98.9%
same,Purity,"[3]; stress conditions, 4 weeks",99.3%
same,Content,"[3]; stress conditions, Start",98.8%
same,Purity,"[3]; stress conditions, Start",99.2%
same,Appearance (color),"[3]; stress conditions, Start",White
same,DSC onset,"[3]; stress conditions, Start",214 °C
same,Water content,"[3]; stress conditions, Start",2.48%
same,Content Change,[3]; [8],+0.1%
same,Purity Change,[3]; [8],+0.1%
same,Water content Change,[3]; [8],+0.22%
same,DSC onset,[4]; 1 mo,214 °C
same,Water content,[4]; 1 mo,2.73%
same,DSC onset,[4]; 3 mos,214 °C
same,Water content,[4]; 3 mos,3.19%
same,DSC onset,[4]; 6 mos,214 °C
same,Water content,[4]; 6 mos,3.01%
same,Content,[4]; 1 mo,98.9%
same,Purity,[4]; 1 mo,99.3%
same,Content,[4]; 3 mos,98.9%
same,Purity,[4]; 3 mos,99.3%
same,Content,[4]; 6 mos,99.1%
same,Purity,[4]; 6 mos,99.3%
same,Content,[4]; Start,98.8%
same,Purity,[4]; Start,99.2%
same,DSC onset,[4]; Start,214 °C
same,Water content,[4]; Start,2.48%
same,Content Change,[4]; start to 6 months,+0.3%
same,Purity Change,[4]; start to 6 months,+0.1%
same,Water content Change,[4]; start to 6 months,+0.53%
same,AUC(0-t),[5]; [6],5210 ng·h/mL
same,Cmax,[5]; [7],428 ng/mL
